“Also recorded” adds a separate entry of the source.
What was measured:
Type in all cases: cell-based, human
JEG-3 cells [1] = assay: Scratch wound migration assay; conditions: after 24 h of exposure, 25-200 µM
Method: JEG-3 cells were cultured as described in Cell Culture section, and six PFAS were evaluated across an 8-point linear concentration curve ranging from 25 to 200 µM (25 µM steps): PFOA (335-67-1), GenX (62037-80-3), PFOS (1763-23-1), perfluorooctanesulfonamide (PFOSA, 754-91-6), perfluorooctanamide (PFOAA, 423-54-1), and perfluorononanoic acid (PFNA, 375-95-1). The vehicle control group consisted of 98% media + 2% methanol to match the concentration of methanol in the media at the highest PFAS concentration tested (200 µM). Cadmium chloride (25 µM) was used as a positive control for cytotoxicity ([Brooks and Fry, 2017]). Chemical exposure plate maps were designed so that all experimental conditions were tested in at least technical duplicates per plate. The outer edges of each plate received media alone and were excluded from all analyses to avoid edge effects. JEG-3 cells were counted and seeded at a density of 80,000 cells per well in black-walled, clear bottom 96-well plates (Corning #CLS3603, Millipore Sigma) and allowed to adhere and grow for 36 h. After approximately 36 h, 96-well plates were imaged on the IncuCyte Zoom to obtain cellular confluence measurements prior to chemical dosing (0 h). Media was then removed from wells and replaced with fresh serum-free media containing chemical treatments (serum-free exposure media) using the Viaflo liquid handling device. After 1 h of treatment with serum-free exposure media, plates were again imaged for cellular confluence using the IncuCyte Zoom. Serum-free exposure media was then removed from wells and wells were scratched by dragging a 200 µl pipette tip from top to bottom of each well, changing tips every well. Fresh media containing serum and chemical treatments (exposure media) was added to plates using a liquid handling device and allowed to grow for 72 h, with imaging via the IncuCyte Zoom every 6 h.
Plate well bottom images were evaluated using automated cell masking as described in Proliferation section. Cell migration was calculated as the change in cellular confluence from the baseline measurement obtained immediately post-scratch to each subsequent time point (24, 48, and 72 h, post-scratch).
Raw migration assay data exported from IncuCyte software were analyzed using GraphPad Prism 8.0 (GraphPad Software, San Diego, CA)). Prior to analysis, a minimum starting confluence value of 70% was set to ensure comparisons between samples were not skewed. Images with a starting confluence of less than 70% were excluded from analysis. Statistical analysis was performed using multiple unpaired t-tests to compare treated groups to the vehicle control followed by post hoc correction for multiple tests using the Bonferroni-Dunn method. Concentration-response analysis to determine migration assay EC50s was attempted but was not able to be modeled due to the non-linear nature of the concentration-response relationship for this endpoint.

JEG-3 cells [2] = assay: Proliferation, change in confluence 0-24 h (IncuCyte Zoom, HTTS)
Summary of the method: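 Confluence measured by automated image masking at 0 h and 24 h after dosing; proliferation = 24 h minus baseline confluence. JEG-3 seeded at 2,500 cells/well, ~30–50% baseline confluence, exposed 24 h to PFAS up to 500 µM in medium with 2.5% methanol vehicle; 37°C, 5% CO2.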

JEG-3 cells [3] = assay: Mitochondrial membrane potential, JC-10 assay (HTTS)
Summary of the method: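 JEG-3 cells seeded at 2,500 per well were exposed to PFAS for 24 h at 37 °C, with 2.5% methanol vehicle. After a PBS wash, 20 μM JC-10 was added for 1 h at 37 °C. Membrane potential was taken as the green (490/525 nm) to red (540/590 nm) fluorescence ratio.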

JEG-3 cells [4] = assay: Phase contrast live cell images, cell death (positive control); conditions: 24 h
Method: A total of 42 perfluoroalkyl substances (PFAS) were evaluated (Supplementary Table S1 contains source and purity). PFAS stock solutions were maintained in 100% methanol as previous work has shown certain PFAS degrade when stored in dimethyl sulfoxide (DMSO; [Gaballah et al., 2020]). […] The vehicle control group consisted of 97.5% media + 2.5% methanol to match the concentration of methanol in the media at the highest PFAS concentration tested (500 µM). Menadione (50–500 µM) was used as a positive control for cytotoxicity assessment. PFAS were de-identified and assigned random numbers to eliminate bias. Chemical exposure plate maps were designed so that all experimental conditions were tested in at least technical duplicates per plate. The outer edges of each plate received media alone and were excluded from all analyses to avoid edge effects. Each plate map included 14 technical replicates of the vehicle control group and 14 technical replicates of media only. Biological replicates were defined as separate 384 well plates tested on separate days using different cell passages. The experimental workflow is depicted in Supplementary Figure S1.
JEG-3 cells were counted using a Z2 Coulter Particle Counter (Beckman Coulter, CA, United States) and seeded at a density of 2,500 cells per well in black-walled, clear bottom 384 well plates (Corning, #3764) and allowed to adhere overnight. Approximately 24 h later, 384 well plates were imaged using an IncuCyte Zoom live cell imager (Essen BioScience Inc., MI, United States) to obtain baseline cellular confluence measurements prior to chemical dosing (0 h). Media was removed from wells and replaced with fresh media containing chemical treatments (exposure media) using a Viaflo liquid handling device (Integra Biosciences, NH, United States). Within 30 min of exposure media application, plates were again imaged for cellular confluence using the IncuCyte Zoom. Plates were incubated with exposure media for 24 h and then imaged again using the IncuCyte Zoom (24 h).

JEG-3 cells [5] = assay: CellTiter-Glo luminescent cell viability assay (HTTS)
Summary of the method: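 JEG-3 cells (2,500/well) adhered overnight, then exposed 24 h to PFAS (methanol stocks; vehicle 2.5% methanol, top concentration 500 µM). Viability read by CellTiter-Glo ATP luminescence in the same wells as mitochondrial membrane potential; wells with 0 h confluence <20% or >80% excluded.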

[6] = Homo sapiens, JEG-3, 24 h, read-out: Proliferation EC50 ± SD, JEG-3 cells, 24 h exposure, four-parameter fit, estimates meeting inclusion criteria
[7] = after 24 h, in at least one concentration

Row | SMILES | cellular migration relative to vehicle control (JEG-3 cells [1]) | EC50 (JEG-3 cells [2]; [6]) [µM] | EC50 (JEG-3 cells [2]; Homo sapiens, JEG-3, 24 h, read-out: proliferation EC50 ± SE, JEG-3 cells, 24 h) [µM] | EC50 (JEG-3 cells [2]; Homo sapiens, JEG-3, read-out: Proliferation EC50 ± SD (raw values), JEG-3 cells, raw model output including fits that did not meet inclusion criteria) [µM] | EC50 (JEG-3 cells [3]; Homo sapiens, JEG-3, 24 h, read-out: MMP EC50 ± SD, JEG-3 cells, 24 h exposure, four-parameter fit, estimates meeting inclusion criteria) [µM] | minimal effective concentration (JEG-3 cells [2]; Homo sapiens, JEG-3, 24 h, read-out: Prolif ↓, lowest concentration at which the mean response value exceeded the mean control value ± 2*SD (rough binning)) [µM] | cellular proliferation relative to vehicle control (rough binning) (JEG-3 cells [2]; [7]) | cytotoxicity / cell death (JEG-3 cells [4]; 100 µM) | cell death (JEG-3 cells [4]; 150 µM) | concentration that promoted cell death (JEG-3 cells [4]) [µM] | minimal effective concentration (JEG-3 cells [3]; Homo sapiens, JEG-3, 24 h, read-out: MMP ↓, lowest concentration at which the mean response value exceeded the mean control value ± 2*SD (rough binning)) [µM] | MMP relative to vehicle control (rough binning) (JEG-3 cells [3]; [7]) | EC50 (JEG-3 cells [5]; Homo sapiens, JEG-3, 24 h, read-out: Viability EC50 ± SD, JEG-3 cells, 24 h exposure, four-parameter fit, estimates meeting inclusion criteria) [µM] | cell viability relative to vehicle control (rough binning) (JEG-3 cells [5]; [7])
1 | NC(=O)C(F)(F)C(F)(F)C(F)(F)C(F)(F)C(F)(F)C(F)(F)C(F)(F)F [Perfluorooctanamide] | significantly reduced | 114 | 114 ± 35.6 | 114 ± 35.6 | 295 ± 66.1 |  |  |  |  |  |  |  |  | 
2 | CC1=CC(=O)c2ccccc2C1=O [Menadione, reference compound] |  | 157 ± 21.4 |  |  |  | 150 | reduced proliferation | minimal cell death; also recorded: not cytotoxic | Complete cell death | ≥ 150 | 300 | reduced MMP | 206 ± 47.1 | reduced cell viability
